Experimental data: ChEMBL document CHEMBL3792304 (Eur J Med Chem, 2016)
pEC50: −log10 of the molar value.

Tests used:
Hepatitis C virus [1] = experiment: Antiviral activity against Hepatitis C virus genotype 1b infected in human Huh7ET cells expressing LucUbiNeo fusion protein measured after 2 days by luciferase Bright-Glo assay; assay type: functional, organism-based, Hepacivirus hominis; details: Huh-7, 48 h
[2] = Cytotoxicity against human Huh7ET cells expressing LucUbiNeo fusion protein measured after 4 hrs at 37 degC by MTT assay; assay type: cell-based, Huh-7
Hepatitis C virus [3] = experiment: Antiviral activity against HCV subtype 1b by replicon assay; assay type: functional, organism-based, Hepacivirus hominis; details: genotype 1b
[4] = Selectivity index, ratio of CC50 for human Huh7ET cells expressing LucUbiNeo fusion protein to EC50 for Hepatitis C virus genotype 1b infected in human […] cells; assay type: toxicity, cell-based; details: read-out: Ratio CC50/EC50

SMILES | pEC50 (Hepatitis C virus [1]) | CC50 at 4 h [2] | pEC50 (Hepatitis C virus [3]) | selectivity ratio [4]
O=C1Nc2nc(Oc3ccccc3)nc(On3nnc4ccccc43)c2CC1c1ccc(F)cc1 (configuration not stated) | 4.73 | 62.7 µM |  | 
CCCCCNc1nc(N)nc2[nH]c(=O)c(-c3c(Cl)cccc3Cl)cc12 | 5.49 | 11 µM |  | 
Cn1c(=O)c(-c2c(Br)cccc2Br)cc2c(N)nc(Nc3ccccc3)nc21 | 6.52 | 0.8 µM |  | 
CCCOCCNc1nc(Nc2ccccc2)nc2c1CC(c1c(Cl)cccc1Cl)C(=O)N2 (configuration not stated) | 4.91 | 50.5 µM |  | 
Cn1c(=O)c(-c2c(F)cccc2C(F)(F)F)cc2c(N)nc(Nc3ccccc3)nc21 | 5.55 | 6.3 µM |  | 
CC(C)OC(=O)[C@H](C)NP(=O)(OC[C@H]1O[C@@H](n2ccc(=O)[nH]c2=O)[C@](C)(F)[C@@H]1O)Oc1ccccc1 (some centres not stated) |  |  | 7.32 | 
CCCOCCNc1nc(Oc2ccccc2)nc2[nH]c(=O)c(-c3ccc(F)cc3)cc12 | 5.48 | 79.8 µM |  | 
Nc1nc(Nc2ccccc2)nc2c1cc(-c1c(Cl)cccc1Cl)c(=O)n2CCO | 5.64 | 29.3 µM |  | 
Cn1c(=O)c(-c2c(F)cccc2F)cc2c(N)nc(Nc3ccccc3)nc21 | 6.80 | 10.4 µM |  | 
Nc1nc(Nc2ccccc2)nc2[nH]c(=O)c(-c3c(Br)cccc3Br)cc12 | 5.11 | 166 µM |  | 
Cn1c(=O)c(-c2ccccc2)cc2c(N)nc(Nc3ccccc3)nc21 | 6.05 | 23.5 µM |  | 
Cn1c(=O)c(-c2c(Cl)cccc2Cl)cc2c(N)nc(N)nc21 | 4.78 | 120 µM |  | 
CCCn1c(=O)c(-c2c(Cl)cccc2Cl)cc2c(N)nc(Nc3ccccc3)nc21 | 5.85 | 181 µM |  | 
CCCOCCNc1nc(N)nc2[nH]c(=O)c(-c3ccc(F)cc3)cc12 | 5.68 | 130 µM |  | 
COCCOc1nc(N)nc2c1CC(c1c(Cl)cccc1Cl)C(=O)N2 (configuration not stated) | 4.66 | 65 µM |  | 

More lines, main results first:

pEC50 (Hepatitis C virus [1]) | SMILES | CC50 at 4 h [2] | pEC50 (Hepatitis C virus [3]) | selectivity ratio [4]
6.64 | Cn1c(=O)c(-c2c(Cl)cccc2Cl)cc2cnc(Nc3ccccc3)nc21 | 0.9 µM |  | 
5.03 | COc1ccc(Nc2nc3[nH]c(=O)c(-c4ccc(F)cc4)cc3c(=O)[nH]2)cc1 | 46 µM |  | 
6.66 | CC(C)Cn1c(=O)c(-c2c(Cl)cccc2Cl)cc2c(N)nc(Nc3ccccc3)nc21 | 185 µM |  | 
6.31 | Nc1nc(Nc2ccccc2)nc2[nH]c(=O)c(-c3ccccc3)cc12 | 13.8 µM |  | 
5.87 | O=C1Nc2nc(Nc3ccccc3)nc(On3nnc4ccccc43)c2CC1c1ccc(Cl)cc1Cl (configuration not stated) | 5.5 µM |  | 
5.29 | CCCOCCNc1nc(Nc2ccccc2)nc2c1cc(-c1c(Cl)cccc1Cl)c(=O)n2C | 84.7 µM |  | 
5.20 | CCn1c(=O)c(-c2c(Cl)cccc2Cl)cc2c(N)nc(Nc3ccccc3)nc21 |  |  | 
4.95 | CSc1nc2c(c(=O)[nH]1)CC(Cc1ccccc1)C(=O)N2 (configuration not stated) | 38.3 µM |  | 
6.00 | COCCn1c(=O)c(-c2c(Cl)cccc2Cl)cc2c(N)nc(Nc3ccccc3)nc21 | 241 µM |  | 
7.47 | O=c1[nH]c2nc(Nc3ccccc3)[nH]c(=O)c2cc1-c1ccc(F)cc1 | 13.5 µM |  | 397
4.98 | CCCOCCOc1nc(N)nc2c1cc(-c1c(Cl)cccc1Cl)c(=O)n2C | 50.1 µM |  | 
4.76 | Nc1nc(Nc2ccccc2)nc2[nH]c(=O)c(-c3c(F)cccc3F)cc12 | 2.4 µM |  | 
4.68 | CCCCCNc1nc(N)nc2c1cc(-c1ccc(F)cc1)c(=O)n2C | 79.8 µM |  | 
5.89 | O=C1Nc2nc(Nc3ccccc3)nc(On3nnc4ccccc43)c2CC1c1ccc(F)cc1 (configuration not stated) | 12.2 µM |  | 
5.02 | O=C1Nc2nc(NCc3ccccc3)[nH]c(=O)c2CC1c1c(Cl)cccc1Cl (configuration not stated) | 69 µM |  | 
4.92 | CCCCn1c(=O)c(-c2c(Cl)cccc2Cl)cc2c(N)nc(Nc3ccccc3)nc21 |  |  | 
5.33 | CCCOCCNc1nc(N)nc2c1cc(-c1ccc(F)cc1)c(=O)n2C | 54.3 µM |  | 
7.57 | O=C1Nc2nc(Nc3ccccc3)[nH]c(=O)c2CC1c1c(F)cccc1F (configuration not stated) | 5.3 µM |  | 196
4.98 | Cn1c(=O)c(-c2ccc(F)cc2)cc2c(N3CCCC3)nc(N)nc21 | 111 µM |  | 
